Columns and labels:
[1] = tested on: human limbal explants; test: Epithelial outgrowth from human limbal explants cultured on intact AM with kinase inhibitors; type: cell-based; settings: 10 μM
Procedure: Human AM was provided by Bio-Tissue (Miami, Fla.) and stored at −80° C. before use. AM was devitalized by freezing and thawing and washed three times with HBSS before being fastened onto a 30 mm culture insert, Millicel-CM (which generated an insert with 23 mm diameter covered by AM), and placed in a 6 well plate (Meller, D. and Tseng S C G, Invest Ophthalmol Vis Sci., 40:878-86, 1999).
After removal of excessive sclera, iris, corneal endothelium, conjunctiva, and Tenon's capsule, the limbal ring was separated by a 7.5 mm trephine from donor human corneas. Each limbal ring was rinsed 3 times with SHEM media. The limbal ring was then exposed for 10 min to 1.2 units/ml Dispase II in Mg^2+- and Ca^2+-free HBSS at 37° C. under 95% humidity and 5% CO2. Following three rinses with SHEM medium, each limbal ring was subdivided into two halves and each half further subdivided into 6 pieces of 1×1.5×2.5 mm explants. To eliminate variations of age, sex, and race, explants from the corresponding position of the same donor cornea were selected for the control and the experimental group, respectively. An explant was placed on the center of intact AM or plastic with the epithelial side facing up and cultured in SHEM medium. The experimental group was added with the inhibitor of desired concentration, while the control group was added with the same concentration of DMSO as the vehicle which was used to dissolve each inhibitor. The culture was maintained at 37° C. under 95% humidity and 5% CO2, the medium was changed every other day, and their outgrowth was monitored daily for 17 days using an inverted phase microscope (Nikon, Japan). The outgrowth area was digitized every other day by Adobe Photoshop 5.5 and analyzed by NIH ImageJ 1.30v (NIH, Bethesda, Md.).
All experiments were performed at least in triplicate. Summary data were reported as means±S.D., compiled and analyzed by MicroSoft Excel™ (MicroSoft, Redmont, Wash.). The mean and standard deviation were calculated for each group using the appropriate version of Student's unpaired t-test. Test results were reported as two-tailed p values, where p<0.05 was considered statistically significant.

[2] = tested on: p38 MAPK; test: Western blot of p38 MAPK phosphorylation in limbal epithelial cells expanded on intact AM; settings: 10 μM
[3] = tested on: limbal epithelial progenitor cells; test: K12 and K10 immunostaining of human limbal explants in airlift culture; type: cell-based; settings: SHEM, 2 weeks, 10 μM
Procedure: (§1) Human limbal tissue cubes can be placed in the alternative on the center of type I collagen coated inserts and cultured in SHEM medium under submerge and airlift manners, of which the later was also added with p38 inhibitor. In the submerge manner, 4 ml culture medium was added to the culture dish to cover the entire limbal explant. In the airlift manner, 2 ml culture medium was added so as to let the insert bottom sit on the air-liquid interface. That is, the explant was exposed to air, but the remaining explant stroma was submerged in the medium meniscus. In the airlift+p38 inhibitor group, p 38 inhibitor SB 203580 was added to culture medium at a concentration of 10 μM. Cultures were incubated at 37° C. under 5% CO2 and 95% air, and the medium is changed every 2 days. Rabbit limbal explants are also cultured in the same fashion as the human tissue. Limbal tissue cubes are placed on the center of type I collagen coated inserts and cultured under airlift manner in SHEM medium with or without p38 inhibitor SB203580 for 1 week.
To study the effect of p38 inhibitor on the differentiation of limbal epithelial progenitor cells, human corneal limbal explants were cultured under submerge and airlift manners, of which the later was added with or without p38 inhibitor, on type I collagen coated inserts in SHEM medium for 2 weeks. […]

[4] = tested on: p44/42 MAPK; test: Western blot of p44/42 MAPK phosphorylation in limbal epithelial cells expanded on intact AM; type: cell-based, human; settings: 10 μM
[5] = tested on: corneal limbal epithelial cells; test: Type IV collagen immunostaining of epithelial outgrowth from human limbal explants on denuded AM; type: cell-based; settings: explant on dAM in SHEM
[6] = tested on: rabbit corneal limbal explant; test: Rabbit limbal explant outgrowth on type I collagen coated insert, airlift culture; type: cell-based; settings: SHEM
Procedure: as §1
To study the effect of p38 inhibitor on the outgrowth epithelial sheet, rabbit corneal limbal explant is cultured on the type I collagen coated insert under the airlift manner in SHEM medium for 1 week with or without addition of p38 inhibitor (FIG. 2).

## C[S+]([O-])c1ccc(-c2nc(-c3ccncc3)c(-c3ccc(F)cc3)[nH]2)cc1 (stereo not shown) [SB203580]
[1]
  day at which epithelial outgrowth was noted / started: 5 days
[1]; limbal explant on intact AM in SHEM, up to 17 days, vs DMSO control
  epithelial outgrowth: did not change the outgrowth
[2]
  phosphorylation at Thr180/Tyr182 of p38 MAPK: abolished
[3]
  K10 positive cells in limbal and corneal epithelium: no K10 positive cells
  K12 expression in the limbal epithelium: restored
[4]
  phosphorylation of p44/42 MAPK (Thr202 and Tyr204): did increase
[5]; 2 weeks
  type IV collagen staining of outgrowth epithelial cells: intracellular staining
[5]; 4 weeks
  type IV collagen staining of outgrowth epithelial cells: strong linear band staining
[6]; 1 week
  outgrowth rate based on outgrowth surface area: not inhibited
[6]; with p38 inhibitor
  outgrowth sheet in H&E stained cross-sections: intact and consisted of uniformly two layers

— patent US20070128719A1, “ISOLATION AND EXPANSION OF ANIMAL CELLS IN CELL CULTURES” (TissueTech, Inc., priority 2003, published 2007)
